Data from US20240092799A1, “MNK INHIBITORS” (Hepagene Therapeutics (HK) Limited, priority 2020, published 2024).

Target: MNK2 (Homo sapiens (Human), UniProt Q9HBH9)
Test: MNK Biochemical Enzymatic Assay (ADP-Glo), MNK2 binding assay
Method: MNK Biochemical Enzymatic Assay. This protocol establishes the binding assays for MNK1 and MNK2 using ADP-Glo assay. MNK phosphorylates the substrate and converts ATP to ADP, which was detected by Envision and used to reflect the reminding activity of MNK. Reagents and equipment used in the assay are listed below, followed by the protocol.
• a) Add 50 μL compound to 384-well dilution plate • b) Dilute compound 1:3 in succession in DMSO for each column for 10+0 pts (refer to dilution plate map) • c) Transfer 0.1 μL diluted compound solution in each row to 384 assay plate using Echo, each column containing 2 replicates (refer to assay plate map) • d) Add 5 μL enzyme working solution to 384-well assay plate, centrifuge 1000 RPM for 1 min • e) Incubate at 25° C. for 15 min • f) Add 5 μL substrate working solution to initiate reaction • g) Incubate at 25° C. for 60 min • h) Add 10 μL ADP Glo reagent, centrifuge 1000 RPM for 1 min • i) Incubate at 25° C. for 60 min • j) Add 20 μL kinase detection reagent, centrifuge 1000 RPM for 1 min • k) Incubate at 25° C. for 60 min • l) Read on Envision for US LUM as RLU • m) Data analysis: IC50s were determined based on a non-linear regression analysis of data collected.

Sequence of MNK2 (Q9HBH9 whole entry): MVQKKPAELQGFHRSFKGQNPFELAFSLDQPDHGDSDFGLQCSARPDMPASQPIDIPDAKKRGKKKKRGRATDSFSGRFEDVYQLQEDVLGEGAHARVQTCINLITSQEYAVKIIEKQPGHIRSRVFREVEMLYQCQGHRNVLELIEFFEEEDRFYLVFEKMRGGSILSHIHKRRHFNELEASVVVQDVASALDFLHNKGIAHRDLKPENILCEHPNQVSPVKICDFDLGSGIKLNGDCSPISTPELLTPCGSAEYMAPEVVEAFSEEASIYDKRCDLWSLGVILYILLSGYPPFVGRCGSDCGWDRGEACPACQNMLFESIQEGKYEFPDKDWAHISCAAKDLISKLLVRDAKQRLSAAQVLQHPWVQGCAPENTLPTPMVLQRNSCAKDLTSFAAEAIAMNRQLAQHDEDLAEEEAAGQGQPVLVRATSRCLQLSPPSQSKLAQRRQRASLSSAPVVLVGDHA

| Structure (SMILES) | IC50 |
| --- | --- |
| Cc1cccnc1Nc1cc(Nc2cc3c(s2)C(=O)NC32CCCCC2)ncn1 [Compound XXIII-S, 2′-((6-((3-methylpyridin-2-yl)amino)pyrimidin-4-yl)amino)spiro [cyclohexane-1,4′-thieno[2,3-c]pyrrol]-6′(5′H)-one] | 100 to 1000 nM |
| O=C1NC2(CCCCC2)c2cc(Nc3cc(NC(=O)C4CCNC4)ncn3)sc21 (stereo not shown) [Compound XXIII-V, N-(6-((6′-oxo-5′,6′-dihydrospiro[cyclohexane-1,4′-thieno[2,3-c]pyrrol]-2′-yl)amino)pyrimidin-4-yl)pyrrolidine-3-carboxamide] | 10 to 100 nM |
| COCCNc1cc(Nc2cc3c(s2)C(=O)NC32CCCCC2)ncn1 [Compound XXIII-W, 2′-((6-((2-methoxyethyl)amino)pyrimidin-4-yl)amino)spiro[cyclohexane-1,4′-thieno[2,3-c]pyrrol]-6′(5′H)-one] | 10 to 100 nM |
| O=C1NC2(CCCCC2)c2cc(Nc3cc(N[C@H]4CCC[C@@H]4O)ncn3)sc21 [Compound XXIII-X, 2′-((6-(((1S,2S)-2-hydroxycyclopentyl)amino)pyrimidin-4-yl)amino)spiro[cyclohexane-1,4′-thieno[2,3-c]pyrrol]-6′(5′H)-one] | 10 to 100 nM |
| O=C1NC2(CCCCC2)c2cc(Nc3cc(Nc4cccnc4)ncn3)sc21 [Compound XXIII-Z] | 10 to 100 nM |
| O=C1NC2(CCCCC2)c2cc(Nc3cc(NCc4cccs4)ncn3)sc21 [Compound XXIV, 2′-((6-((Thiophen-2-ylmethyl)amino)pyrimidin-4-yl)amino)spiro[cyclohexane-1,4′-thieno[2,3-c]pyrrol]-6′(5′H)-one] | 10 to 100 nM |
| O=C1NC2(CCCCC2)c2cc(Nc3cc(NC4CCOCC4)ncn3)sc21 [Compound XXIV-D, 2′-((6-((tetrahydro-2H-pyran-4-yl)amino)pyrimidin-4-yl)amino)spiro[cyclohexane-1,4′-thieno[2,3-c]pyrrol]-6′(5′H)-one] | 100 to 1000 nM |
| O=C1NC2(CCCCC2)c2cc(Nc3cc(Nc4ccccc4F)ncn3)sc21 [Compound XXIV-E, 2′-((6-((2-fluorophenyl)amino)pyrimidin-4-yl)amino)spiro[cyclohexane-1,4′-thieno[2,3-c]pyrrol]-6′(5′H)-one] | 10 to 100 nM |
| O=C1NC2(CCCCC2)c2cc(Nc3cc(N[C@@H]4CCCOC4)ncn3)sc21 [Compound XXIV-F, (R)-2′-((6-((tetrahydro-2H-pyran-3-yl)amino)pyrimidin-4-yl)amino)spiro[cyclohexane-1,4′-thieno[2,3-c]pyrrol]-6′(5′H)-one] | 10 to 100 nM |
| O=C1NC2(CCCCC2)c2cc(Nc3cc(NC4CCCCC4)ncn3)sc21 [Compound XXIV-J, 2′-((6-(cyclohexylamino)pyrimidin-4-yl)amino)spiro[cyclohexane-1,4′-thieno[2,3-c]pyrrol]-6′(5′H)-one] | 10 to 100 nM |
| Cn1cccc(Nc2cc(Nc3cc4c(s3)C(=O)NC43CCCCC3)ncn2)c1=O [Compound XXIV-L, 2′-((6-((1-methyl-2-oxo-1,2-dihydropyridin-3-yl)amino)pyrimidin-4-yl)amino)spiro[cyclohexane-1,4′-thieno[2,3-c]pyrrol]-6′(5′H)-one] | 100 to 1000 nM |
| O=C1NC2(CCCCC2)c2cc(Nc3cc(N[C@@H]4CCOC4)ncn3)sc21 [Compound XXIV-M, (R)-2′-((6-((tetrahydrofuran-3-yl)amino)pyrimidin-4-yl)amino)spiro[cyclohexane-1,4′-thieno[2,3-c]pyrrol]-6′(5′H)-one] | 10 to 100 nM |
| Cc1nc(Nc2ccccn2)cc(Nc2cc(C)c3c([n+]2[O-])C2(CCCCC2)NC3=O)n1 [Compound XXIX-AAB, 4′-methyl-2′-((2-methyl-6-(pyridin-2-ylamino)pyrimidin-4-yl)amino)-5′-oxo-5′,6′-dihydrospiro[cyclohexane-1,7′-pyrrolo[3,4-b]pyridine] 1′-oxide] | 100 to 1000 nM |
| Cc1cc(Nc2cc(NC(=O)c3ccccn3)ncn2)[n+]([O-])c2c1C(=O)NC21CCCCC1 [Compound XXIX-AAF, 4′-methyl-5′-oxo-2′-((6-(picolinamido)pyrimidin-4-yl)amino)-5′,6′-dihydrospiro[cyclohexane-1,7′-pyrrolo[3,4-b]pyridine] 1′-oxide] | 10 to 100 nM |
| COC(=O)C1(Nc2cc(Nc3cc(C)c4c([n+]3[O-])C3(CCCCC3)NC4=O)ncn2)CCOC1 (stereo not shown) [Compound XXIX-AAG, 2′-((6-((3-(methoxycarbonyl)tetrahydrofuran-3-yl)amino)pyrimidin-4-yl)amino)-4′-methyl-5′-oxo-5′,6′-dihydrospiro[cyclohexane-1,7′-pyrrolo[3,4-b]pyridine] 1′-oxide] | 100 to 1000 nM |
| Cc1cc(Nc2ncnc3[nH]ncc23)[n+]([O-])c2c1C(=O)NC21CCCCC1 [Compound XXIX-AAH, 2′-((1H-pyrazolo[3,4-d]pyrimidin-4-yl)amino)-4′-methyl-5′-oxo-5′,6′-dihydrospiro[cyclohexane-1,7′-pyrrolo[3,4-b]pyridine] 1′-oxide] | 10 to 100 nM |
| Cc1cc(Nc2cc(Nc3ccnn3C3CCNCC3)ncn2)[n+]([O-])c2c1C(=O)NC21CCCCC1 [Compound XXIX-AAR, 4′-methyl-5′-oxo-2′-((6-((1-(piperidin-4-yl)-1H-pyrazol-5-yl)amino)pyrimidin-4-yl)amino)-5′,6′-dihydrospiro[cyclohexane-1,7′-pyrrolo[3,4-b]pyridine] 1′-oxide] | 0.1 to 10 nM |
| Cc1cc(Nc2cc(Nc3ccc(C4=CCOCC4)cn3)ncn2)[n+]([O-])c2c1C(=O)NC21CCCCC1 [Compound XXIX-AAS, 2′-((6-((5-(3,6-dihydro-2H-pyran-4-yl)pyridin-2-yl)amino)pyrimidin-4-yl)amino)-4′-methyl-5′-oxo-5′,6′-dihydrospiro[cyclohexane-1,7′-pyrrolo[3,4-b]pyridine] 1′-oxide] | 0.1 to 10 nM |

The next lines start with the values.

| IC50 | Structure (SMILES) |
| --- | --- |
| 10 to 100 nM | Cc1cc(Nc2ncnc3c2CCN3)[n+]([O-])c2c1C(=O)NC21CCCCC1 [Compound XXIX-AB, 2′-((6,7-dihydro-5H-pyrrolo[2,3-d]pyrimidin-4-yl)amino)-4′-methyl-5′-oxo-5′,6′-dihydrospiro[cyclohexane-1,7′-pyrrolo[3,4-b]pyridine] 1′-oxide] |
| 10 to 100 nM | CC(=O)N1CC(Nc2cc(Nc3cc(C)c4c([n+]3[O-])C3(CCCCC3)NC4=O)ncn2)C1 [Compound XXIX-AC, 2′-((6-((1-acetylazetidin-3-yl)amino)pyrimidin-4-yl)amino)-4′-methyl-5′-oxo-5′,6′-dihydrospiro[cyclohexane-1,7′-pyrrolo[3,4-b]pyridine] 1′-oxide] |
| 10 to 100 nM | Cc1cc(Nc2cc(Nc3ccccc3F)ncn2)[n+]([O-])c2c1C(=O)NC21CCCCC1 [Compound XXIX-AI, 2′-((6-((2-fluorophenyl)amino)pyrimidin-4-yl)amino)-4′-methyl-5′-oxo-5′,6′-dihydrospiro[cyclohexane-1,7′-pyrrolo[3,4-b]pyridine] 1′-oxide] |
| 10 to 100 nM | Cc1cc(Nc2cc(Nc3cccnc3)ncn2)[n+]([O-])c2c1C(=O)NC21CCCCC1 [Compound XXIX-AJ, 4′-methyl-5′-oxo-2′-((6-(pyridin-3-ylamino)pyrimidin-4-yl)amino)-5′,6′-dihydrospiro[cyclohexane-1,7′-pyrrolo[3,4-b]pyridine] 1′-oxide] |
| 10 to 100 nM | Cc1cc(Nc2cc(Nc3ccncc3)ncn2)[n+]([O-])c2c1C(=O)NC21CCCCC1 [Compound XXIX-AK, 4′-methyl-5′-oxo-2′-{[6-(pyridin-4-ylamino)pyrimidin-4-yl]amino}-6′H-Spiro[cyclohexane-1,7′-pyrrolo[3,4-b]pyridin]-1′-ium-1′-olate] |
| > 1000 nM | Cc1cc(Nc2ncnc(Nc3ccccn3)c2C)[n+]([O-])c2c1C(=O)NC21CCCCC1 [Compound XXIX-AN, 4′-methyl-2′-((5-methyl-6-(pyridin-2-ylamino)pyrimidin-4-yl)amino)-5′-oxo-5′,6′-dihydrospiro[cyclohexane-1,7′-pyrrolo[3,4-b]pyridine] 1′-oxide] |
| 10 to 100 nM | Cc1cc(Nc2cc(NC(=O)N3CCCC3)ncn2)[n+]([O-])c2c1C(=O)NC21CCCCC1 [Compound XXIX-AQ, 4′-methyl-5′-oxo-2′-((6-(pyrrolidine-1-carboxamido)pyrimidin-4-yl)amino)-5′,6′-dihydrospiro[cyclohexane-1,7′-pyrrolo[3,4-b]pyridine] 1′-oxide] |
| 100 to 1000 nM | Cc1cc(Nc2cc(NC3CCS(=O)(=O)C3)ncn2)[n+]([O-])c2c1C(=O)NC21CCCCC1 (stereo not shown) [Compound XXIX-AR, 2′-((6-((1,1-dioxidotetrahydrothiophen-3-yl)amino)pyrimidin-4-yl)amino)-4′-methyl-5′-oxo-5′,6′-dihydrospiro[cyclohexane-1,7′-pyrrolo[3,4-b]pyridine] 1′-oxide] |
| 10 to 100 nM | Cc1cc(Nc2cc(NCC3CCOC3)ncn2)[n+]([O-])c2c1C(=O)NC21CCCCC1 (stereo not shown) [Compound XXIX-AV, 4′-methyl-5′-oxo-2′-((6-(((tetrahydrofuran-3-yl)methyl)amino)pyrimidin-4-yl)amino)-5′,6′-dihydrospiro[cyclohexane-1,7′-pyrrolo[3,4-b]pyridine] 1′-oxide] |
| 10 to 100 nM | Cc1cc(Nc2cc(N[C@@H]3CCOC3)ncn2)[n+]([O-])c2c1C(=O)NC21CCCCC1 [Compound XXIX-AX, (R)-4′-methyl-5′-oxo-2′-((6-((tetrahydrofuran-3-yl)amino)pyrimidin-4-yl)amino)-5′,6′-dihydrospiro[cyclohexane-1,7′-pyrrolo[3,4-b]pyridine] 1′-oxide] |
